Measured values taken from patent US20240358693A1, “METHODS OF TREATING PAIN” (Aisa Pharma, Inc., priority 2023, published 2024).

System: participants with SSc-RP
Experiment: Average severity of weekly RP attacks (VAS 0-10 cm scale)
Format: in vivo, human
Source text: The absolute change in average severity of weekly RP attacks (VAS 0-10 cm scale) from baseline to the end of each Dosing Period was and will be a secondary outcome variable. The sponsor-developed participant-informed diary will be used to record data. Average severity of weekly RP attacks is defined as the total severity scores of RP attacks divided by total number of RP attacks within the last 7 days of each dosing period. Total severity scores of RP attacks during the last 7 days of screening period divided by the total number of RP attacks will be used as baseline for the analysis of all periods. The variable will be calculated similar to frequency data as before.

[1] = Pooled Cilnidipine 10 mg and Cilnidipine 10 mg + Tadalafil 5 mg, n=1, by Baseline RCS, second subgroup, ITT Population - Part A
[2] = Pooled Cilnidipine 10 mg and Cilnidipine 10 mg + Tadalafil 5 mg, n=2, by Baseline RCS, first subgroup, ITT Population - Part A
[3] = Pooled Cilnidipine 10 mg and Cilnidipine 10 mg + Tadalafil 5 mg, n=3, Excluding Outliers, ITT Population - Part A
[4] = Pooled Cilnidipine 10 mg and Cilnidipine 10 mg + Tadalafil 5 mg, n=3, ITT Population - Part A
[5] = Pooled Cilnidipine 10 mg and Cilnidipine 10 mg + Tadalafil 5 mg, Excluding Outliers, ITT Population - Part A
[6] = Pooled Cilnidipine 10 mg and Cilnidipine 10 mg + Tadalafil 5 mg, Excluding Outliers, by Baseline RCS, first subgroup, ITT Population - Part A
[7] = Pooled Cilnidipine 10 mg and Cilnidipine 10 mg + Tadalafil 5 mg, Excluding Outliers, by Baseline RCS, second subgroup, ITT Population - Part A
[8] = Pooled Cilnidipine 10 mg and Cilnidipine 10 mg + Tadalafil 5 mg, ITT Population - Part A
[9] = Pooled Cilnidipine 10 mg and Cilnidipine 10 mg + Tadalafil 5 mg, first Baseline RCS subgroup block (not named), ITT Part A
[10] = Pooled Cilnidipine 10 mg and Cilnidipine 10 mg + Tadalafil 5 mg, first Baseline RCS subgroup block (not named), ITT Part A, score 0-10
[11] = Pooled Cilnidipine 10 mg and Cilnidipine 10 mg + Tadalafil 5 mg, second Baseline RCS subgroup block (not named), ITT Part A
[12] = Pooled Cilnidipine 10 mg and Cilnidipine 10 mg + Tadalafil 5 mg, second Baseline RCS subgroup block (not named), ITT Part A, score 0-10
[13] = Pooled Cilnidipine 20 mg and Cilnidipine 20 mg + Tadalafil 5 mg, n=1, by Baseline RCS, second subgroup, ITT Population - Part A
[14] = Pooled Cilnidipine 20 mg and Cilnidipine 20 mg + Tadalafil 5 mg, n=3, by Baseline RCS, first subgroup, ITT Population - Part A

COCCOC(=O)C1=C(C)NC(C)=C(C(=O)OC/C=C/c2ccccc2)C1c1cccc([N+](=O)[O-])c1 (stereo not shown) [Cilnidipine, cilnidipine]
Average Severity of Weekly RP Attacks (All Attacks), Percent Change from Baseline, Median (Pooled (over cilnidipine doses), ITT Population - Part A): −7.69% | Average Severity (0-10) of Weekly Symptomatic RP Attacks, Mean [1]: 5.23 | Average Severity (0-10) of Weekly Symptomatic RP Attacks, Median [1]: 5.23 | Average Severity of Weekly Symptomatic RP Attacks, Change from Baseline, Mean [1]: −1.13 | Average Severity of Weekly Symptomatic RP Attacks, Change from Baseline, Median [1]: −1.13 | Average Severity of Weekly Symptomatic RP Attacks, Percent Change from Baseline, Mean [1]: −17.81% | Average Severity of Weekly Symptomatic RP Attacks, Percent Change from Baseline, Median [1]: −17.81% | Average Severity (0-10) of Weekly Symptomatic RP Attacks, Mean [2]: 3.34 | Average Severity (0-10) of Weekly Symptomatic RP Attacks, Median [2]: 3.34 | Average Severity of Weekly Symptomatic RP Attacks, Change from Baseline, Mean [2]: −1.22 | Average Severity of Weekly Symptomatic RP Attacks, Change from Baseline, Median [2]: −1.22 | Average Severity of Weekly Symptomatic RP Attacks, Percent Change from Baseline, Mean [2]: −20.18% | Average Severity of Weekly Symptomatic RP Attacks, Percent Change from Baseline, Median [2]: −20.18% | Average Severity (0-10) of Weekly Symptomatic RP Attacks, Mean [3]: 3.97 | Average Severity (0-10) of Weekly Symptomatic RP Attacks, Median [3]: 3.77 | Average Severity of Weekly Symptomatic RP Attacks, Change from Baseline, Mean [3]: −1.19 | Average Severity of Weekly Symptomatic RP Attacks, Change from Baseline, Median [3]: −1.13 | Average Severity of Weekly Symptomatic RP Attacks, Percent Change from Baseline, Mean [3]: −19.39% | Average Severity of Weekly Symptomatic RP Attacks, Percent Change from Baseline, Median [3]: −17.81% | Average Severity (0-10) of Weekly Symptomatic RP Attacks, Mean [4]: 3.97 | Average Severity (0-10) of Weekly Symptomatic RP Attacks, Median [4]: 3.77 | Average Severity of Weekly Symptomatic RP Attacks, Change from Baseline, Mean [4]: −1.19 | Average Severity of Weekly Symptomatic RP Attacks, Change from Baseline, Median [4]: −1.13 | Average Severity of Weekly Symptomatic RP Attacks, Percent Change from Baseline, Mean [4]: −19.39% | Average Severity of Weekly Symptomatic RP Attacks, Percent Change from Baseline, Median [4]: −17.81% | Average Severity of Weekly RP Attacks (All Attacks), Change from Baseline, Mean [5]: −1.34 | Average Severity of Weekly RP Attacks (All Attacks), Change from Baseline, Median [5]: −1.32 | Average Severity of Weekly RP Attacks (All Attacks), Mean [5]: 3.62 | Average Severity of Weekly RP Attacks (All Attacks), Median [5]: 3.05 | Average Severity of Weekly RP Attacks (All Attacks), Percent Change from Baseline, Mean [5]: −23.02% | Average Severity of Weekly RP Attacks (All Attacks), Percent Change from Baseline, Median [5]: −21.20% | Average Severity of Weekly Symptomatic RP Attacks (Mean) [6]: 3.34 | Average Severity of Weekly Symptomatic RP Attacks (Median) [6]: 3.34 | Average Severity of Weekly Symptomatic RP Attacks, Change from Baseline, Mean [6]: −1.22 | Average Severity of Weekly Symptomatic RP Attacks, Change from Baseline, Median [6]: −1.22 | Average Severity of Weekly Symptomatic RP Attacks, Percent Change from Baseline, Mean [6]: −20.18% | Average Severity of Weekly Symptomatic RP Attacks, Percent Change from Baseline, Median [6]: −20.18% | Average Severity of Weekly Symptomatic RP Attacks (Mean) [7]: 5.23 | Average Severity of Weekly Symptomatic RP Attacks (Median) [7]: 5.23 | Average Severity of Weekly Symptomatic RP Attacks, Change from Baseline, Mean [7]: −1.13 | Average Severity of Weekly Symptomatic RP Attacks, Change from Baseline, Median [7]: −1.13 | Average Severity of Weekly Symptomatic RP Attacks, Percent Change from Baseline, Mean [7]: −17.81% | Average Severity of Weekly Symptomatic RP Attacks, Percent Change from Baseline, Median [7]: −17.81% | Average Severity of Weekly RP Attacks (All Attacks), Change from Baseline, Mean [8]: −1.34 | Average Severity of Weekly RP Attacks (All Attacks), Change from Baseline, Median [8]: −1.32 | Average Severity of Weekly RP Attacks (All Attacks), Mean [8]: 3.62 | Average Severity of Weekly RP Attacks (All Attacks), Median [8]: 3.05 | Average Severity of Weekly RP Attacks (All Attacks), Percent Change from Baseline, Mean [8]: −23.02% | Average Severity of Weekly RP Attacks (All Attacks), Percent Change from Baseline, Median [8]: −21.20% | Average Severity of Weekly RP Attacks (All Attacks), Percent Change from Baseline, Mean [9]: −23.94% | Average Severity of Weekly RP Attacks (All Attacks), Percent Change from Baseline, Median [9]: −23.94% | Average Severity of Weekly RP Attacks (All Attacks), Change from Baseline, Mean [10]: −1.35 | Average Severity of Weekly RP Attacks (All Attacks), Change from Baseline, Median [10]: −1.35 | Average Severity of Weekly RP Attacks (All Attacks), Mean [10]: 2.97 | Average Severity of Weekly RP Attacks (All Attacks), Median [10]: 2.97 | Average Severity of Weekly RP Attacks (All Attacks), Percent Change from Baseline, Mean [11]: −21.20% | Average Severity of Weekly RP Attacks (All Attacks), Percent Change from Baseline, Median [11]: −21.20% | Average Severity of Weekly RP Attacks (All Attacks), Change from Baseline, Mean [12]: −1.32 | Average Severity of Weekly RP Attacks (All Attacks), Change from Baseline, Median [12]: −1.32 | Average Severity of Weekly RP Attacks (All Attacks), Mean [12]: 4.90 | Average Severity of Weekly RP Attacks (All Attacks), Median [12]: 4.90 | Average Severity (0-10) of Weekly Symptomatic RP Attacks, Mean [13]: 5.06 | Average Severity (0-10) of Weekly Symptomatic RP Attacks, Median [13]: 5.06 | Average Severity of Weekly Symptomatic RP Attacks, Change from Baseline, Mean [13]: −1.79 | Average Severity of Weekly Symptomatic RP Attacks, Change from Baseline, Median [13]: −1.79 | Average Severity of Weekly Symptomatic RP Attacks, Percent Change from Baseline, Mean [13]: −26.14% | Average Severity of Weekly Symptomatic RP Attacks, Percent Change from Baseline, Median [13]: −26.14% | Average Severity (0-10) of Weekly Symptomatic RP Attacks, Mean [14]: 2.85 | Average Severity (0-10) of Weekly Symptomatic RP Attacks, Median [14]: 2.40 | Average Severity of Weekly Symptomatic RP Attacks, Change from Baseline, Mean [14]: −1.06 | Average Severity of Weekly Symptomatic RP Attacks, Change from Baseline, Median [14]: −0.33 | Average Severity of Weekly Symptomatic RP Attacks, Percent Change from Baseline, Mean [14]: −24.28% | Average Severity of Weekly Symptomatic RP Attacks, Percent Change from Baseline, Median [14]: −12.02%
